Experiments:
[1] = system: α-NaGalase in human colorectal adenocarcinoma cell line DLD-1; assay: Residual α-NaGalase activity (expression) in lysate of DLD-1 cells treated with alkaloids; type: cell-based; conditions: DLD-1 cells treated with 5 μM for 24 h
Procedure: DLD-1cells (5.0 × 10^5) were seeded in […] for 24 h at 37 °C in a 5% CO2 incubator. Then the cells were treated with compounds 1–9 at concentrations ranging from 0 to 20 μM for an additional 24 h. Then the cells were harvested using 0.02% EDTA, after this 3 mL of cold 15 mM Tris–HCl (pH 7.0) was added.
Every 3–4 days cells were rinsed in phosphate buffered PBS, detached from the tissue culture flask by 1× trypsin/EDTA solution, harvested with RPMI-1640 medium and centrifuge at 500 rpm for 3 min. The culture media was discarded and cells pellet was resuspended in EDTA/Tris solution and frozen at −80 °C.
Frozen lysates of cancer cells in the 15 mM Tris buffer, pH 7.0 containing 0.02% EDTA, defrosted and sonicated 10 times during 1 min with a break of 1 min. To remove the cellular detritus, the cell homogenate was centrifuged at 4 °C, 10,000 rpm, 30 min. The supernatant proteins were precipitated with 35% ammonium sulfate, kept during four hours at 4 °C to form a pellet. The protein pellet was collected by centrifugation (4 °C, 10,000 rpm, 30 min) and dissolved in 0.05 M sodium citrate buffer, pH 5.0. The supernatant proteins were precipitated with 75% ammonium sulfate, kept overnight at 4 °C to form a pellet. The protein pellet was collected by centrifugation (4 °C, 10,000 rev/min, 30 min) and dissolved in 0.05 M sodium citrate buffer, pH 5.0. Both extracts were dialyzed against the same buffer, centrifuged to separate the insoluble precipitate. α-NaGalase activity was tested in both extracts and was found only in the protein fraction precipitated with 75% ammonium sulfate. This supernatant was used in further work as partly purified enzyme. The purification quality was controlled by 12% Laemmli-SDS-PAGE-electrophoresis.
The activity of α-PsGal and α-NaGalase were determined by increasing the amount of p-nithrophenol (pNP). To assay the α-NaGalase activity 0.05 mL of cell extract and 0.1 mL of substrate pNPNA-α-Gal (8.8 mM) in 0.05 M sodium citrate buffer, pH 5.0 were placed in cells of 96-well plate and incubated at 37 °C for 30 min. The mixtures containing 0.05 mL of an enzyme solution and 0.1 mL of a substrate solution (3.3 mM) in 0.05 M sodium phosphate buffer (pH 7.0) were incubated at 20 °C during 5 min for determination of α-PsGal standard activity. […]
Absorbance was measured at 400 nm. Results were read with a computer program Gen5 and treated with ExCel computer program. […] Specific activity (A) was calculated as the enzyme activity (U) per 1 mg of protein. […] Residual activity (%) was calculated with formula: Residual activity (%) = v/v0 ×100, where v is the initial reaction rate of enzymes under the action of an inhibitor or other factors, v0 is the initial reaction rate of enzymes in the absence of the influence of any factors. […]

[2] = biological target: T1, α-D-galactosidase (α-PsGal) (Pseudoalteromonas sp. KMM 701, UniProt Q19AX0); assay: Inhibitory potency on recombinant α-PsGal (residual activity); type: biochemical; conditions: for Residual activity v/v0 (%) of the α-PsGal: preincubated 30 min, 20 °C, pH 7.0
T1 sequence (Q19AX0 1-710): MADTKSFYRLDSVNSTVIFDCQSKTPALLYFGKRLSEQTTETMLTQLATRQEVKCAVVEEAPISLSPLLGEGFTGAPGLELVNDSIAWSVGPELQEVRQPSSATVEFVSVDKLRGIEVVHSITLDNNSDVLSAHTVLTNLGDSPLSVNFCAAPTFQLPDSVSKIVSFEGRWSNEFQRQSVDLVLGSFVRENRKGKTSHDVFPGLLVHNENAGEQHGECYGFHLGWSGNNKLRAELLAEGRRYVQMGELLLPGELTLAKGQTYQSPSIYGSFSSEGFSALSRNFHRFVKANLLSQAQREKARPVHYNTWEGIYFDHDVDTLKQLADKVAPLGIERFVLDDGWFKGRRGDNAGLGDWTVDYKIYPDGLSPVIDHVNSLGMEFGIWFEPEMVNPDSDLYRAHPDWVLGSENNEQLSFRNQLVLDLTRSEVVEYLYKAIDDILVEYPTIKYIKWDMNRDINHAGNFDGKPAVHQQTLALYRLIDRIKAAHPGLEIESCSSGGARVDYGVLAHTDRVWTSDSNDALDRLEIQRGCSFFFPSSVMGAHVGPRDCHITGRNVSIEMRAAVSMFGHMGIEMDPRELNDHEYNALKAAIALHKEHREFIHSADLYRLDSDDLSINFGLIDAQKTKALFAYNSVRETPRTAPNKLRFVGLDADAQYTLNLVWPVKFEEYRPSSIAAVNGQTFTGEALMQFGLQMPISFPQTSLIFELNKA
Procedure: The recombinant wild-type α-D-galactosidase (α-PsGal) was produced as described earlier. The plasmid DNA pET-40b(+) containing insertion of the gene from the marine bacterium Pseudoalteromonas sp. KMM 701 encoding α-PsGal was transformed in the Escherichia coli strain Rosetta (DE3). Heterological expression was carried out at optimal conditions as described earlier. Purification of the recombinant […] was performed, according to described procedures. The purification quality was controlled by 12% Laemmli-SDS-PAGE-electrophoresis.
The activity of α-PsGal and α-NaGalase were determined by increasing the amount of p-nithrophenol (pNP). To assay the α-NaGalase activity 0.05 mL of cell extract and 0.1 mL of substrate pNPNA-α-Gal (8.8 mM) in 0.05 M sodium citrate buffer, pH 5.0 were placed in cells of 96-well plate and incubated at 37 °C for 30 min. The mixtures containing 0.05 mL of an enzyme solution and 0.1 mL of a substrate solution (3.3 mM) in 0.05 M sodium phosphate buffer (pH 7.0) were incubated at 20 °C during 5 min for determination of α-PsGal standard activity. The reactions were stopped by the addition of 0.15 mL of 1 M Na2CO3 solution.
Absorbance was measured at 400 nm. Results were read with a computer program Gen5 and treated with ExCel computer program. The unit of standard activity (U) was defined as the amount of the enzyme catalyzing the formation of 1 µmol of p-nitrophenol (ε400 = 18,300 M^−1 cm^−1) per 1 min under the conditions indicated. Specific activity (A) was calculated as the enzyme activity (U) per 1 mg of protein. All calculations were based on reactions with consumption of 10% of the chromogenic substrate. The protein concentrations were estimated by the Bradford method with BSA as a standard. Residual activity (%) was calculated with formula: Residual activity (%) = v/v0 ×100, where v is the initial reaction rate of enzymes under the action of an inhibitor or other factors, v0 is the initial reaction rate of enzymes in the absence of the influence of any factors. Buffer solutions of α-PsGal (0.1 U/mL) and α-NaGalase (0.01 U/mL) were used in the further experiments.
In the control sample, 5 μL of water or 2 μL of EtOH were added to 25 μL of enzyme solution. The enzyme reaction was initiated by adding 120 μL of the substrate pNP-α-Gal (3.3 mM) for α-PsGal or pNPNA-α-Gal (8.8 mM) for α-NaGalase in the respective buffer solutions. After 10 min for α-PsGal or 60 min for α-NaGalase the reaction was stopped by adding 150 μL of 1 M Na2CO3. The amount of pNP was quantified by spectrophotometric detection at 400 nm. Results were evaluated as the percent of residual activity as described above.

[3] = biological target: T1, α-D-galactosidase (α-PsGal); assay: Irreversibility of α-PsGal inhibition (dialysis experiment); type: biochemical; conditions: dialysis against buffer for 60 h at 4 °C; activity did not recover
Procedure: To determine the reversibility of the α-PsGal activity inhibition by alkaloids 2, 3, 8, and 9 15 µL of 0.625 mM aqueous solution of the compounds 2 and 3 or 6 µL of 2.5 mM ethanol solution of the compound 8 and 9 were added to 75 µL of the enzyme solution in 0.05 M sodium phosphate buffer (pH 7.0). After 30 min of the mixture incubation the aliquot of 30 µL was taken and 120 µL of 3.3 mM pNPG solution were added to initiate the reaction; the reaction was stopped by addition of 150 µL of 1M Na2CO3. The α-D-galactosidase activity was determined, as described above. The remaining reaction mixture was dialyzed against 1 L of 0.02 M sodium phosphate buffer (pH 7.0) for 60 h at 4 °C. The buffer was changed 3 times during the dialysis. The enzyme activity was determined, as described above. A sample of α-PsGal treated with H2O or EtOH in the absence of the inhibitor (75 µL of the enzyme solution and 15 µL of H2O or 6 µL of EtOH, respectively) was dialyzed and used as a control for determination of the initial activity. The experiment was carried out in two replicates. The residual activity was calculated as described above.

[4] = biological target: T1, α-D-galactosidase (α-PsGal); assay: Kinetic studies of α-PsGal inactivation; type: biochemical; conditions: pH 7.0, 20 °C; for Ki / kinact: Hill equation fit; for Ki: read-out: Ki, equilibrium inhibition constant; for kinact: read-out: kinact, inactivation rate constant (converted)
Procedure: The kinetic parameters Ki and kinact were determined by classic methods. The inactivation of α-PsGal was monitored by incubation of the enzyme with different concentrations of alkaloids in […] sodium phosphate buffer, pH 7.0, at 20 °C in total volume of 30 µL (25 µL and 5 µL of α-PsGal and alkaloids, respectively), which were placed in cells of 96 cells plate. After preincubation of enzyme-inhibitor mixture for 0.5, 5, 10, 15, 20, 25, or 30 min […] the fraction of remaining enzyme activity was measured as a function of time by addition to the inactivation mixture 120 µL of a solution of pNP-α-Gal (3.3 mM). The pseudo-first-order rate constant of inactivation (kobs) was determined for each inactivator concentration as the slope of the v/v0 dependence on the incubation time in semilogarithmic coordinates. The Excel software was used for these calculations. The second order rate constants for the inactivation process were determined by fitting the dependences of the kobs values on the concentration of the inactivators to the Hill or Michaelis–Menten equations. An analysis of the graphs and the choice of models for calculation of inhibition constants (Ki, mM) and inactivation rate constants (kinact, min^–1) were performed with the Origin computer software.

DLD-1 cells = assay: MTS cytotoxic activity assay on DLD-1 cells; type: cell-based, human; conditions: 24 h, dose up to 20 μM
Procedure: DLD-1 cells (8 × 10^3/200 μL) were seeded in 96-well plates for 24 h at 37 °C in a 5% CO2 incubator. The cells were treated with compounds 1–9 at concentrations ranging from 0 to 20 μM for an additional 24 h. Subsequently, cells were incubated with 15 μL MTS (3-(4,5-dimethylthiazol-2-yl)-5-(3-carboxymethoxyphenyl)-2-(4-sulfophenyl)-2H-tetrazolium) reagent for 3 h, and the absorbance in each well was measured at 490/630 nm using a microplate reader “Power Wave XS” (Bio Tek, Winooski, VT, USA). All the experiments were repeated three times, and the mean absorbance values were calculated. The results are expressed in absorbance by the compound’s treatment compared to the non-treated cells (control 1) and the compounds in medium (control 2). All the experiments were made in triplicate.

| SMILES | expression of the enzyme α-NaGalase (residual activity of lysate cell α-NaGalase, control 100%) [1] [%] | inhibitory activity against α-PsGal (in words) [2] | Residual activity v/v0 (%) of the α-PsGal ([2]; compound concentration 1.48 mM) | irreversibility of α-PsGal inhibition [3] | n, Hill's coefficient of cooperativity [4] | Ki [4] [µM] | kinact [4] [s⁻¹] | n, Hill's coefficient of cooperativity ([4]; listed as zyzzyanone A (9)) | n, Hill's coefficient of cooperativity ([4]; listed as makaluvamine G (8)) | cytotoxicity against DLD-1 cells (DLD-1 cells) | Residual activity v/v0 (%) of the α-PsGal ([2]; compound concentration 1.67 mM) |
| --- | --- | --- | --- | --- | --- | --- | --- | --- | --- | --- | --- |
| CN1CCc2c[nH]c3c2C1=CC(=O)C3=O [Compound 6, damirone B] | 52 | no notable activity | 87 ^2% | – | – | – | – | – | – | – | – |
| CNCCc1cn(C)c2c1C(=O)c1c(-c3ccc(O)cc3)c[nH]c1C2=O [Compound 9, zyzzyanone A] | – | low inhibitory activity | 0 ^2% | irreversibly inactivate | 4.1 | 105 ± 9 | 0.000617 | 4.10 ± 1.42 | – | – | – |
| Cn1cc2c3c1C(=O)C(N/C=C/c1ccc(O)cc1)=CC3=[N+](C)CC2 [Compound 8, makaluvamine G] | – | low inhibitory activity | 28 ^2% | irreversibly inactivate | 2.5 | 411 ± 86 | 0.00132 | – | 2.5 ± 0.97 | – | – |
| CN1CCc2cn(C)c3c2C1=CC(=O)C3=O [Compound 5, damirone A] | – | no notable activity | 87 ^2% | – | – | – | – | – | – | – | – |
| Cn1cc2c3c1C(=O)C(N)=CC3=[N+](C)CC2 [Compound 7, makaluvamine H] | 50 | no notable activity | 67 ^2% | – | – | – | – | – | – | – | – |
| COc1cc2ccnc3c2c(c1OC)NC=C3 [Compound 1, aaptamine] | – | no notable activity | – | – | – | – | – | – | – | non-cytotoxic | 79 ^1% |
| COc1cc2c3c(cc[n+](C)c3c1[O-])NC(=O)C2=O [Compound 4, aaptanone] | – | no notable activity | – | – | – | – | – | – | – | – | 100 ^1% |
